Columns and labels:
P2X7 receptor [1] = molecular target: T1, P2X7 receptor (Homo sapiens, UniProt Q99572); assay: IL-1β release assay (BzATP-stimulated, LPS/IFN-γ differentiated THP-1 cells, ELISA); format: cell-based; conditions: for inhibition at 0.3 µM: at 0.3 μM (plus symbols); for inhibition at 0.1 µM: at 0.1 μM (asterisk symbols)
T1 construct: host or cells: THP-1 cells differentiated with LPS and IFN-γ
T1 sequence (Q99572 1-595): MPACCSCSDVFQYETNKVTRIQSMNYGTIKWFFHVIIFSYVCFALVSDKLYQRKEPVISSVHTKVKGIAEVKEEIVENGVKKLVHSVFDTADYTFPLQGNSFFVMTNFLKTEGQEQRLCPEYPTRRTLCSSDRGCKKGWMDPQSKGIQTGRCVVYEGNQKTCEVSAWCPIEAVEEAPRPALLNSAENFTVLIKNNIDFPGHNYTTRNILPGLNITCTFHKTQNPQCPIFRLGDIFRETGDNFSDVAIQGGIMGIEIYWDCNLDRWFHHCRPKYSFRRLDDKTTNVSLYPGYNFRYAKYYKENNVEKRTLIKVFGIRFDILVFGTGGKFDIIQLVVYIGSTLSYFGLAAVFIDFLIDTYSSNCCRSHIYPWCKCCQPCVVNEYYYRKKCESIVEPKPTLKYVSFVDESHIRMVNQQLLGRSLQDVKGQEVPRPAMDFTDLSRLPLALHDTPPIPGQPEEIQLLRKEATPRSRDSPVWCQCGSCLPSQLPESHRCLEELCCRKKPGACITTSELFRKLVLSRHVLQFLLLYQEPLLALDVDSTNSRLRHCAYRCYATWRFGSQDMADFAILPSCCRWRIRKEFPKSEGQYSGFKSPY
Outline: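 THP-1 cells were differentiated 16 h with LPS and IFN-γ (100 ng/mL each), then primed 2 h with fresh LPS. Compound pretreatment lasted 30 min, followed by 250 uM BzATP for 45 min. Supernatant IL-1β was measured by ELISA, and percent inhibition was calculated from background-adjusted levels.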

P2X7 receptor [2] = molecular target: T1, P2X7 receptor; assay: Pore formation (Yo-Pro 1 uptake, BzATP-stimulated differentiated THP-1 cells); format: cell-based; conditions: for inhibition at 0.3 µM: at 0.3 μM (plus symbols); for inhibition at 0.1 µM: at 0.1 μM (asterisk symbols)
Description: THP-1 cells (ATCC Cat # 285-IF-100) are plated in 96 well plates at a concentration of 200,000 cells per well and allowed to differentiate in RPMI-1640 media (ATCC Cat # 30-2001) containing 10% FBS, 100 IU/mL penicillin, 100 ug/mL streptomycin, 100 ng/mL LPS and 100 ng/mL IFN-γ for 16 hours. Following differentiation, the cells are pretreated with the compound of interest at the appropriate concentration for 30 minutes in RPMI-1640 media containing 100 IU/mL penicillin, 100 ug/mL streptomycin. The pretreatment media is then replaced with assay buffer (20 mM HEPES, 10 mM D-glucose, 118 mM NMDG, 5 mM KCl, 0.4 mM CaCl2) containing 5 uM Yo-Pro 1 (Molecular Probes Cat # Y3603) and the compound of interest at the appropriate concentration and the cells are incubated for an additional 10 minutes. 2′,3′-O-(4-benzoylbenzoyl)-adenosine 5′-triphosphate (Sigma Aldrich Cat# B6396) is then added to a final concentration of 40 uM and fluoroscence readings measured at 491/509 excitation/emission every minute for 50 minutes using a Tecan Safire plate reader. During this time temperature is maintained at of 37° C. Background adjusted fluorescence levels between drug treated and non-treated cells are used to calculate the percent inhibition.

| SMILES | inhibition at 0.3 µM (P2X7 receptor [1]) [%] | inhibition at 0.1 µM (P2X7 receptor [1]) [%] | also measured |
| --- | --- | --- | --- |
| O=C(CC12CC3CC(CC(C3)C1)C2)Nc1cccc2c1CCN(Cc1ccccc1)C2=O [Compound 702, 2-Adamantan-1-yl-N-(2-benzyl-1-oxo-1,2,3,4-tetrahydro-isoquinolin-5-yl)-acetamide] | ≥ 75 | – | inhibition at 0.3 µM (P2X7 receptor [2]): ≥ 75% |
| O=C(CC12CC3CC(CC(C3)C1)C2)Nc1cccc2c(=O)n(Cc3ccc4c(c3)OCCO4)ccc12 [Compound 707] | ≥ 75 | – | inhibition at 0.3 µM (P2X7 receptor [2]): ≥ 75% |
| O=C(CC12CC3CC(CC(C3)C1)C2)Nc1cccc2c(=O)n(CC3CCCO3)ccc12 (stereo not shown) [Compound 709] | ≥ 75 | – | inhibition at 0.3 µM (P2X7 receptor [2]): ≥ 75% |
| O=C(CC12CC3CC(CC(C3)C1)C2)Nc1cccc2c(=O)n(CC3CCOCC3)ccc12 [Compound 717] | ≥ 75 | – | inhibition at 0.3 µM (P2X7 receptor [2]): ≥ 75% |
| O=C(CC12CC3CC(CC(C3)C1)C2)Nc1cccc2c1CCN(Cc1ccc(C(F)(F)F)cc1)C2=O [Compound 727] | ≥ 75 | – | inhibition at 0.3 µM (P2X7 receptor [2]): ≥ 75% |
| CC12CC3CC(C)(C1)CC(CC(=O)Nc1cccc4c(=O)n(Cc5ccccc5)ccc14)(C3)C2 [Compound 751] | – | 50 to 75 | inhibition at 0.1 µM (P2X7 receptor [2]): 50 to 75% |
| O=C(CC12CC3CC(CC(C3)C1)C2)Nc1cccc2c(=O)n(CCN3CCOCC3)ccc12 [Compound 780] | – | ≥ 75 | inhibition at 0.1 µM (P2X7 receptor [2]): ≥ 75% |
| O=C(CC12CC3CC(CC(C3)C1)C2)Nc1cccc2c(=O)[nH]ccc12 [Compound 804] | – | ≥ 75 | inhibition at 0.3 µM (P2X7 receptor [2]): ≥ 75% |
| O=C(CC12CC3CC(CC(C3)C1)C2)Nc1cccc2c1CCN(CCCN1CCCC1)C2=O [Compound 880] | – | ≥ 75 | – |
| NC(=O)[C@@H](CC1CCCCC1)n1ccc2c(NC(=O)CC34CC5CC(CC(C5)C3)C4)cccc2c1=O [Compound 881] | – | ≥ 75 | – |
| NC(=O)[C@H](Cc1c[nH]cn1)n1ccc2c(NC(=O)CC34CC5CC(CC(C5)C3)C4)cccc2c1=O [Compound 882] | – | ≥ 75 | – |
| O=C(CC12CC3CC(CC(C3)C1)C2)Nc1cccc2c(=O)n(C(CO)Cc3c[nH]cn3)ccc12 (stereo not shown) [Compound 883] | – | ≥ 75 | – |
| O=C(CC12CC3CC(CC(C3)C1)C2)Nc1cccc2c(=O)n(Cc3nccs3)ccc12 [Compound 885] | – | ≥ 75 | – |
| CC(C)C(CO)n1ccc2c(NC(=O)CC34CC5CC(CC(C5)C3)C4)cccc2c1=O (stereo not shown) [Compound 887] | – | ≥ 75 | – |
| CC(CO)n1ccc2c(NC(=O)CC34CC5CC(CC(C5)C3)C4)cccc2c1=O (stereo not shown) [Compound 888] | ≥ 75 | – | – |
| CC12CC3CC(C)(C1)CC(CC(=O)Nc1cccc4c(=O)n(CC5CCNCC5)ccc14)(C3)C2 [Compound 890] | ≥ 75 | – | – |
| C=Cn1ccc2c(N(C)C(=O)CC34CC5CC(CC(C5)C3)C4)cccc2c1=O [Compound 891] | 50 to 75 | – | – |
| CC12CC3CC(C)(C1)CC(CC(=O)Nc1cccc4c(=O)n(CCCN5CCOCC5)ccc14)(C3)C2 [Compound 892] | ≥ 75 | – | – |
| CC(C)Cn1ccc2c(N(C)C(=O)CC34CC5CC(CC(C5)C3)C4)cccc2c1=O [Compound 893] | 25 to 50 | – | – |
| CN1CCC(CN2CCc3c(NC(=O)CC45CC6CC(C)(CC(C)(C6)C4)C5)cccc3C2=O)CC1 [Compound 894] | ≥ 75 | – | – |
| CC12CC3CC(C)(C1)CC(CC(=O)Nc1cccc4c(=O)n(C(CO)CO)ccc14)(C3)C2 [Compound 895] | ≥ 75 | – | – |
| C[C@@H](CO)n1ccc2c(NC(=O)CC34CC5CC(CC(C5)C3)C4)cccc2c1=O [Compound 896] | ≥ 75 | – | – |
| C[C@H](CO)n1ccc2c(NC(=O)CC34CC5CC(CC(C5)C3)C4)cccc2c1=O [Compound 897] | ≥ 75 | – | – |
